Here are results for three compounds from patent publication US20130189727A1, “Methods And Compositions For Cellular Imaging And Cancer Cell Detection Using Light Harvesting Conjugated Polymer-Biomolecular Conjugates” (NATIONAL UNIVERSITY OF SINGAPORE, priority 2010, published 2013).

pKd: −log10 of the molar value. Like-named read-outs stand apart in the source and are kept apart here. {NH2} = amino group (5'-NH2) on the aptamer

Data set [1] concerns the target T1, lysozyme (Gallus gallus, UniProt P00698).
T1 construct: Hen egg white lysozyme, BSA, and human trypsin were ordered from Sigma-Aldrich; purchased Sigma-Aldrich; host or cells: hen egg white
Briefly: Aptamer/lysozyme binding affinity (Kd). Also on record: species or system Hen. The method, then: The LOD is estimated to be 0.36 μg/mL (2.4 pmol, based on 3σ from six independent measurements) using a standard fluorometer, which is more sensitive to aptamer-based electrochemical and fluorescent arrays and is similar to that obtained from a standard of ELISA. (See Vidal, M. L., et al., Agric. Food Chem. 2005, 53, 2379-2385, the entire teachings of which are incorporated herein by reference). However, the strategy of using Apt-NP as a platform for lysozyme detection reduces the bonding affinity (Kd) of the aptamer to its target. […] (See, for example, Cox, J. C.; Ellington, A. D., Bioorg. Med. Chem. 2001, 9, 2525-2531, the entire teachings are incorporated herein by reference). The large Kd on the NP surface is detrimental to assay sensitivity, could be the result of: (1) the steric hindrance induced by the folded aptamer upon binding to lysozyme which prevents the adjacent aptamers from folding into G-quartet structure; (2) the binding of lysozyme on the Apt-NP surface hampers subsequent aptamer/lysozyme binding due to electrostatic repulsion.

Data set [2] deals with T1, lysozyme. The settings on record: in solution; read-out: Kd measured in solution; cited from earlier work.
Data set [3] in a line: Photostability in stained cells under continuous laser scanning (CLSM). The settings on record: excitation at 405 nm; MCF-7 cells. It counts as physicochemical. As to the method:
FIG. 2 is time-resolved confocal laser scanning microscopy (CLSM) fluorescence images of SKBR-3 breast cancer cells stained by affibody-attached P2 under laser scanning for (a) 0 min and (b) 15 minutes.
FIG. 8 is confocal image of Hela cells under continuous excitation (λmax=488 nm) after 0 min (A) and 15 min (B) and the fluorescence/transmission overlapped images of the corresponding cells (C, D) taken after incubation with P3-phalloidin for 2 h at 0.5 μM.
I0 is the initial fluorescence intensity of the sample […].
Targeted fluorescence imaging of HER2-positive cancer cells using a P2-affibody conjugate was investigated. […]
To explore the potential of the CPE-g-PEG molecular brush in long-term clinical applications, the photostability and cytotoxicity of P4.1 were investigated. Changes in the CLSM images of P4.1-stained MCF-7 cells under continuous laser scanning were monitored to evaluate the photostability of P4.1 in cells. […] In comparison, most commercial dyes (such as fluorescein, rhodamine and Cy5) usually lose their fluorescence within 3 minutes under CLSM laser illumination. […]
The uptake of HCPEPEI-1/DNA and HCPEPEI-2/DNA polyplexes by COS-7 cells was monitored using confocal lasing scanning microscopy (CLSM). […] The dual modal HCPEPEIs fluorescent gene vectors could facilitate in tracking the delivery of genes due to the intrinsic fluorescence from the HCPE core. […]

T1 sequence (P00698 19-147): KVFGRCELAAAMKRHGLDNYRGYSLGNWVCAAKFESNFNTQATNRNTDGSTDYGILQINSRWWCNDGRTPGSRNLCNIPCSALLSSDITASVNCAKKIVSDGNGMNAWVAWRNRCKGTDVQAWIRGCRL

Broadly, the pKd is the negative decadic logarithm of the Kd, by convention in mol/L. With “5′-NH2-ATCTACGAATTCATCAGGGCTAAAGAGTGCAGAGTTACTTAG (ATCTACGAATTCATCAGGGCTAAAGAGTGCAGAGTTACTTAG; 5' {NH2}, sugars by position and backbone not given here) [aptamer]”, the “apparent Kd” value in the data set with lysozyme [1] (aptamer on silica NP surface, lysozyme concentration at half-maximum signal) is reported as “approximately 9 μg/mL”. Further, the pKd with lysozyme [1] (aptamer on silica NP surface, lysozyme concentration at half-maximum signal, read-out: apparent Kd) is ~6.20; with lysozyme [2] it was 7.51. The “Kd on NP surface relative to Kd in solution” value with lysozyme [1] (larger) is on record as 20 fold.

As to “Poly[9,9-bis(2-(2-(2-methoxyethoxy)ethoxy)ethyl)fluorenevinylene-alt-9,9-bis(4-sulfonatobutyl)fluorenevinylene Sodium Salt] [PFVSO3]”, the water solubility result is recorded as “approximately 20 mg/mL”.

With `O=C1OC2(c3ccc(O)cc3Oc3cc(O)ccc32)c2ccc(N=C=S)cc21` [FITC], in data set [3], the “decrease of fluorescence intensity after continuous excitation” value is on record as ~56%.
